Values after ≈ are worked out from the molar mass of the structure shown. Read-outs that look alike come from different tables or passages of the source.
Tests used:
S. aureus ATCC 13709 = assay: MIC, S. aureus ATCC 13709 (Alamar Blue broth microdilution); format: cell-based; conditions: for MIC: Staphylococcus aureus, ATCC13709, S. aureus
E. coli ATCC 25922 = assay: MIC, E. coli ATCC 25922; format: cell-based; conditions: for MIC: Escherichia coli, ATCC25922, E. coli
[1] = Alamar Blue read after overnight incubation at 35° C.
[2] = S. aureus, Alamar Blue read after overnight incubation at 35° C.
[3] = E. coli, Alamar Blue read after overnight incubation at 35° C.

Structure (SMILES) | MIC (S. aureus ATCC 13709; [1]) | MIC (E. coli ATCC 25922; [1]) | MIC Ec (E. coli ATCC 25922; [3]) | further results
CNc1cccc2c1[nH]c1nc(Oc3cncc(F)c3)nc(N3C[C@@H](N)C4(CC4)C3)c12 [3.51] | 8 µg/mL (≈ 19.1 µM) | 32 µg/mL (≈ 76.3 µM) | – | –
CNc1cc(F)cc2c1[nH]c1nc(Oc3cnc(C(N)=O)nc3)nc(N3C[C@H](N)C4(CC4)C3)c12 [4.375] | ≤ 0.5 µg/mL | 4 µg/mL (≈ 8.63 µM) | – | –
CNc1cc(F)cc2c1[nH]c1nc(Oc3cnc(C)nc3)nc(N3C[C@@H]4CCN[C@@H]4C3)c12 [4.156] | ≤ 0.5 µg/mL | ≤ 0.5 µg/mL | – | –
CNc1cc(F)cc2c1[nH]c1nc(Oc3cnc(N4CCOCC4)nc3)nc(N3CC(N)C4(CC4)C3)c12 (centres unmarked) [4.213] | – | – | 1 µg/mL (≈ 1.98 µM) | MIC Sa (S. aureus ATCC 13709; [2]): ≤0.5 µg/mL
CNc1cc(F)cc2c1[nH]c1nc(Oc3cnc(N)nc3)nc(N3CCC4CNC4C3)c12 (centres unmarked) [4.181] | ≤ 0.5 µg/mL | 8 µg/mL (≈ 18.4 µM) | – | –
CNc1cc(Cl)cc2c1[nH]c1nc(Oc3cncnc3)nc(N3CCC4(CC4N)C3)c12 (centres unmarked) [6.11] | – | – | – | MIC Sa (S. aureus ATCC 13709): ≤0.5 µg/mL; MIC Ec (E. coli ATCC 25922): ≤0.5 µg/mL
CNc1cc(F)cc2c1[nH]c1nc(Oc3ccc4sc(N)nc4c3)nc(N3C[C@H]4CC[C@@H](N)[C@H]4C3)c12 [4.335] | ≤ 0.5 µg/mL | 4 µg/mL (≈ 7.93 µM) | – | –
CNc1cc(F)cc2c1[nH]c1nc(Oc3cnc4c(c3)ncn4C3CC3)nc(N3CC(N)C4(CC4)C3)c12 (centres unmarked) [4.362] | – | – | 1 µg/mL (≈ 2 µM) | MIC Sa (S. aureus ATCC 13709; [2]): ≤0.5 µg/mL
CNc1cc(F)cc2c1[nH]c1nc(Oc3cnc(C)nc3)nc(N3CC(NC(=O)CN)C4(CC4)C3)c12 (centres unmarked) [4.085] | – | – | 2 µg/mL (≈ 4.07 µM) | MIC Sa (S. aureus ATCC 13709; [2]): ≤0.5 µg/mL
CNc1cccc2c1[nH]c1nc(Oc3cncnc3)nc(N3CCN(CCN)CC3)c12 [3.56] | > 64 µg/mL | > 64 µg/mL | – | –
CNc1cc(F)cc2c1[nH]c1nc(Oc3cncc(Cl)c3)nc(N3CC4(CCC4N)C3)c12 (centres unmarked) [4.275] | – | – | ≤0.5 µg/mL | MIC Sa (S. aureus ATCC 13709; [2]): ≤0.5 µg/mL
CNc1cccc2c1[nH]c1nc(Sc3cnc4ccc[n+]([O-])c4c3)nc(N3CCC4(CC4N)C3)c12 (centres unmarked) [1.38] | ≤ 0.5 µg/mL | 2 µg/mL (≈ 4.13 µM) | – | –
CNc1cccc2c1[nH]c1nc(Oc3cncnc3)nc(N3C/C(=N\OC)[C@@H](N)C3)c12 [3.62] | ≤ 0.5 µg/mL | 8 µg/mL (≈ 19.1 µM) | – | –
CNc1cc(F)cc2c1[nH]c1nc(Oc3cnc(C)nc3)nc(N3CCCC(N)C3)c12 (centres unmarked) [4.077] | – | – | ≤0.5 µg/mL | MIC Sa (S. aureus ATCC 13709; [2]): ≤0.5 µg/mL
CNc1cccc2c1[nH]c1nc(Oc3cncnc3)nc(N3CCN(CCN4CCOCC4)CC3)c12 [3.60] | 8 µg/mL (≈ 16.3 µM) | > 64 µg/mL | – | –
CNc1cccc2c1[nH]c1nc(Oc3cncnc3)nc(N3CC4C(C3)C4NCC3CC3)c12 (centres unmarked) [3.13] | ≤ 0.5 µg/mL | 1 µg/mL (≈ 2.26 µM) | – | –

Structure (SMILES) | MIC (S. aureus ATCC 13709; [1]) | MIC (E. coli ATCC 25922; [1]) | MIC Ec (E. coli ATCC 25922; [3]) | further results
CNc1cc(F)cc2c1[nH]c1nc(Oc3cncnc3)nc(N3CC4CCC(N)C3C4)c12 (centres unmarked) [4.032] | ≤ 0.5 µg/mL | 2 µg/mL (≈ 4.6 µM) | – | –
CNc1cc(F)cc2c1[nH]c1nc(Oc3cncnc3)nc(N3C[C@H](N)C[C@H]3C)c12 [4.029] | 4 µg/mL (≈ 9.79 µM) | 16 µg/mL (≈ 39.2 µM) | – | –
CNc1cc(F)cc2c1[nH]c1nc(Oc3ccc(CO)nc3)nc(N3CC4CC3C[C@@H]4N)c12 (some centres unmarked) [4.392] | 16 µg/mL (≈ 35.6 µM) | > 16 µg/mL | – | –
CNc1cc(F)cc2c1[nH]c1nc(Oc3cnc(C4CC4)nc3)nc(N3CC4CC4(CN)C3)c12 (centres unmarked) [4.246] | ≤ 0.5 µg/mL | ≤ 0.5 µg/mL | – | –
CNc1cc(F)cc2c1[nH]c1nc(Oc3cncnc3)nc(N3C[C@H](N)C4(CC4)C3)c12 [4.011] | ≤ 0.5 µg/mL | ≤ 0.5 µg/mL | – | –
CNc1cccc2c1[nH]c1nc(Sc3cnc4cccnc4c3)nc(N3CCC4(CC4N)C3)c12 (centres unmarked) [1.25] | ≤ 0.5 µg/mL | – | 4 µg/mL (≈ 8.54 µM) | –
CNc1cc(F)cc2c1[nH]c1nc(Oc3cncc(C#N)c3)nc(N3CC4C(N)C4C3)c12 (centres unmarked) [4.050] | ≤ 0.5 µg/mL | ≤ 0.5 µg/mL | – | –
CNc1cc(F)cc2c1[nH]c1nc(Oc3cnc(C)nc3)nc(N3CCC(F)(CN)CC3)c12 [4.159] | ≤ 0.5 µg/mL | ≤ 0.5 µg/mL | – | –
CNc1cc(F)cc2c1[nH]c1nc(Oc3cnc(C#N)c(C)c3)nc(N3CC4CC3C[C@@H]4N)c12 (some centres unmarked) [4.435] | ≤ 0.5 µg/mL | ≤ 0.5 µg/mL | – | –
CNc1ncnc2c1[nH]c1nc(Oc3cnc(C)nc3)nc(N3CC(N)C4(CC4)C3)c12 (centres unmarked) [7.08] | 16 µg/mL (≈ 38.2 µM) | > 64 µg/mL | – | –
NC1CN(c2nc(Sc3cnc4ccc[n+]([O-])c4c3)nc3[nH]c4c(NC5CC5)cc(F)cc4c23)CC12CC2 (centres unmarked) [1.2] | 32 µg/mL (≈ 60.5 µM) | > 64 µg/mL | – | –
CNc1cc(F)cc2c1[nH]c1nc(Oc3cnc(C)nc3)nc(N3CCC4(CC3)NC(=O)NC4=O)c12 [4.107] | – | – | >16 µg/mL | MIC Sa (S. aureus ATCC 13709; [2]): >16 µg/mL
CNc1cc(F)cc2c1[nH]c1nc(Oc3cnc(N4CCN(C(C)=O)CC4)nc3)nc(N3CCC(N)C3)c12 (centres unmarked) [4.229] | – | – | 2 µg/mL (≈ 3.84 µM) | MIC Sa (S. aureus ATCC 13709; [2]): ≤0.5 µg/mL
CNc1cc(F)cc2c1[nH]c1nc(Oc3cnc(C)nc3)nc(N3CC(NC(=O)CNC(=O)C(N)CO)C4(CC4)C3)c12 (centres unmarked) [4.127] | – | – | >16 µg/mL | MIC Sa (S. aureus ATCC 13709; [2]): 8 µg/mL (≈ 13.8 µM)
CNc1cc(F)cc2c1[nH]c1nc(Oc3cnc(C)nc3)nc(N3CCCC(C)(N)C3)c12 (centres unmarked) [4.088] | – | – | 1 µg/mL (≈ 2.29 µM) | MIC Sa (S. aureus ATCC 13709; [2]): ≤0.5 µg/mL
